The values below are quoted from earlier work in publication PMC6856260 (Clinical Pharmacokinetics, 2019).

The conditions of data set [1]: co-formulated with 5-CNAC.
The conditions of data set [2]: post-dose fasting periods of 15, 30, 60 and 120 min; oral, co-formulated with SNAC.

Read-outs that look alike come from different tables or passages of the source.

On to salmon calcitonin, for which the results for the “reduction of exposure of salmon calcitonin” value in data set [1] (meal 10 min after oral dosing versus 60 min post-dose fasting) and in data set [1] (meal 10 min after oral dosing versus 4 h post-dose fasting) were “up to 30%” and 41%, respectively.
Turning to “semaglutide: oral semaglutide co-formulated with SNAC”, the “effect of increasing post-dose fasting period on exposure (in words)” value in data set [2] is on record as “increasing semaglutide exposure”.
